Patent US20240254144A1, “SALT FORM OF PYRROLOTRIAZINE COMPOUND, CRYSTAL FORM THEREOF, AND PREPARATION METHOD THEREFOR” (JUMBO DRUG BANK CO., LTD., priority 2021, published 2024)

Legend:
[1] = Hygroscopicity by dynamic vapor sorption (DVS); format: physicochemical
Text: SMS DVS intrinsic dynamic vapor sorption instrument

[2] = Solid stability test (long-term and accelerated lofting); format: physicochemical
Text: Each sample was separately put into a double-layer LDPE bag with each layer of LDPE bag sealed by a binding buckle. The bag was then put into an aluminum foil bag for heat sealing, and then put into a stability box under corresponding conditions for observation.

[3] = biological target: T1, MNK2 (h) protein kinase (Homo sapiens, UniProt Q9HBH9); experiment: Inhibitory activity against MNK2 protein kinase (KinaseProfiler, 33P-ATP filter-binding); format: biochemical; settings: myelin basic protein substrate, 40 min at room temperature
T1 construct: purchased Eurofins Pharma Discovery Services UK Limited (KinaseProfiler service)
Description: Purpose of experiment: to test the inhibitory activity of the compound against MNK2 protein kinase Experimental materials: assay buffer: 8 mM 3-(N-morpholino)propanesulfonic acid, 0.2 mM disodium ethylenediaminetetraacetate, 0.01% polyoxyethylene lauryl ether, 5% glycerol, 0.1% β-mercaptoethanol and 1 mg of bovine serum albumin
Experimental operation: Mnk2 protein kinase inhibitory activity assays were performed using the KinaseProfiler™ service from Eurofins Pharma Discovery Services UK Limited. Serially diluted DMSO solutions containing the compound to be tested (3-fold serial dilution, starting from 10 μM), MNK2 (h) protein kinase and 0.33 mg/mL myelin basic protein were added to a freshly prepared buffer (pH=7.0), and then stirred homogeneously. The reaction was initiated by adding a mixture of ^33P-ATP (intensity of radioactivity: 10 μCi/μL) and 10 mM magnesium acetate. After the resulting mixture was reacted at room temperature for 40 min, the reaction was terminated by adding phosphoric acid to dilute to a concentration of 0.5%. […] After drying, the intensity of radioactivity was determined using the Filter-Binding method.
The protein kinase inhibitory activity of the compound was expressed as a percentage of the residual protein kinase activity relative to the blank substrate (DMSO alone). […]

[4] = Crystal form screening / stability in different solvents; format: physicochemical; settings: stirred at 50° C. for 3 h, XRPD
Description: About 50 mg of the compound of formula (II) was weighed out separately and dissolved in different solvents, the mixtures were stirred at 50° C. for 3 h. The reaction liquids were cooled to room temperature, filtered for collection, and dried in vacuum, and the obtained solids were tested by XRPD.

T1 sequence (Q9HBH9 whole entry): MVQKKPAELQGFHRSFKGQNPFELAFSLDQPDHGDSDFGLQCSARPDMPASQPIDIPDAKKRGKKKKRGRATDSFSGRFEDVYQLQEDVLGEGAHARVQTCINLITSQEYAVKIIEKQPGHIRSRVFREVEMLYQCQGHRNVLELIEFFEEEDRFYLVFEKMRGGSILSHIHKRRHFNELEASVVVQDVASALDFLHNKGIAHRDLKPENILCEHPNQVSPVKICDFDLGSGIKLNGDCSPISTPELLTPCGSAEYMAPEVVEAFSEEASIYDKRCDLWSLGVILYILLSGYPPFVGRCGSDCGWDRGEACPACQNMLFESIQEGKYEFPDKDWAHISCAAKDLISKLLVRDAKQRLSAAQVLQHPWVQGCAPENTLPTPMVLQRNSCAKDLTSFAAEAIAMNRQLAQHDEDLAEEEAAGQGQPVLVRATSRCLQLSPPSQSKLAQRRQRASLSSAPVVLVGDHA

## Cc1cc(Nc2ncnn3cc(OCCN4CCC(F)(F)C4)c(C)c23)c(=O)n2c1C(=O)NC21CCCC1
[1]; 25° C. and 80% RH, DVS
  hygroscopic weight gain ΔW: 1.179%
  hygroscopicity (in words): relatively weak hygroscopicity
[1]; DVS 0%~95%~0% RH, 25° C.
  crystal form before and after the hygroscopic test: not changed
[2]; 25° C./60% RH, 12 months
  Crystal form: Crystal form A
[2]; 25° C./60% RH, Day 0
  Crystal form: Crystal form A
[2]; 40° C./75% RH, 6 months
  Crystal form: Crystal form A
[2]; 40° C./75% RH, Day 0
  Crystal form: Crystal form A

## Cc1cc(Nc2ncnn3cc(OCCN4CCC(F)(F)C4)c(C)c23)c(=O)n2c1C(=O)NC21CCCC1 [Compound of formula (I)]
[3]
  IC50: 17 nM

## Cc1cc(Nc2ncnn3cc(OCCN4CCC(F)(F)C4)c(C)c23)c(=O)n2c1C(=O)NC21CCCC1 [compound of formula (II)]
[4]; Acetonitrile
  Crystal form: Crystal form A
[4]; Ethanol
  Crystal form: Crystal form B
[4]; Methanol
  Crystal form: Crystal form A
[4]; n-Heptane
  Crystal form: Crystal form B
[4]; tert-Butyl methyl ether
  Crystal form: Crystal form A
